Measurements as given in ChEMBL document CHEMBL6177970, “Semisynthetic Derivatives of Perovskone: Development of a Promising Class of Antiprotozoal Lead Compounds” (J Nat Prod, 2025).

Experiments:
[1] = tested on: Trypanosoma brucei rhodesiense; assay: Antiprotozoal activity against Trypanosoma brucei rhodesiense STIB900 trypomastigotes measured after 72 to 74 hrs; assay type: functional, organism-based
Trypanosoma cruzi = assay: Antiprotozoal activity against Trypanosoma cruzi Tulahuen C2C4 intracellular amastigotes measured after 96 hrs by inverted microscopy; assay type: functional, organism-based; conditions: Tulahuen C2C4, 96 h
Leishmania donovani = assay: Antileishmanial activity against axenically grown amastigotes Leishmania donovani MHOM-ET-67/L82 measured after 72 hrs by inverted microscopy; assay type: functional, organism-based; conditions: MHOM-ET-67/L82, 72 h
Plasmodium falciparum = assay: Antiplasmodial activity against Plasmodium falciparum NF54 intraerythrocytic forms measured after 72 hrs by 3H-hypoxanthine based liquid scintillation counting analysis; assay type: functional, organism-based
[2] = Cytotoxicity against rat myoblast L6 cells measured after 72 hrs by inverted microscopy; assay type: toxicity, cell-based
[3] = Selectivity index, ratio of IC50 for cytotoxicity against rat myoblast L6 cells to IC50 for antiprotozoal activity against Trypanosoma brucei rhodesiense STIB900 trypomastigotes; assay type: toxicity, cell-based; conditions: read-out: Selectivity Index
[4] = Selectivity index, ratio of IC50 for cytotoxicity against rat myoblast L6 cells to IC50 for antiprotozoal activity against Trypanosoma cruzi Tulahuen C2C4 intracellular amastigotes; assay type: toxicity, cell-based; conditions: read-out: Selectivity Index
[5] = Selectivity index, ratio of IC50 for cytotoxicity against rat myoblast L6 cells to IC50 for antileishmanial activity against axenically grown amastigotes Leishmania donovani MHOM-ET-67/L82; assay type: toxicity, cell-based; conditions: read-out: Selectivity Index
[6] = Selectivity index, ratio of IC50 for cytotoxicity against rat myoblast L6 cells to IC50 for antiplasmodial activity against Plasmodium falciparum NF54 intraerythrocytic forms; assay type: toxicity, cell-based; conditions: read-out: Selectivity Index

Structure (SMILES) | IC50 [1] [µM] | IC50 (Trypanosoma cruzi) [µM] | IC50 (Leishmania donovani) [µM] | IC50 (Plasmodium falciparum) [µM] | IC50 at 72 h [2] [µM] | selectivity ratio [3] | selectivity ratio [4] | selectivity ratio [5] | selectivity ratio [6]
CC1=C2C[C@H]3C(C)(C)OC4=C(C(C)C)C(=O)[C@@]5(C=C1)CC[C@H]1C(C)(C)CCC[C@]16C[C@]25[C@@]43O6 | 58.6 | 7.1 | 14.3 | 0.03 | 26.3 | 0.4 | 3.6 | 1.9 | 843
O=C(Cn1ccnc1[N+](=O)[O-])NCc1ccccc1 [BENZNIDAZOLE] | – | 2.61 | – | – | – | – | – | – | –
CC(C)C1=C2OC(C)(C)[C@@H]3CC4[C@@H](C)[C@H](O)C[C@@]5(CC[C@H]6C(C)(C)CCC[C@]67C[C@]45[C@@]23O7)C1=O (some centres undefined) | 39 | 19 | 10 | 5.1 | 36.7 | 0.9 | 1.9 | 3.7 | 7.1
CC(C)C1=C2OC(C)(C)[C@@H]3CC4[C@H](C)[C@@H](OC(=O)CCC(=O)O)C[C@@]5(CC[C@H]6C(C)(C)CCC[C@]67C[C@]45[C@@]23O7)C1=O (some centres undefined) | 24.4 | 7 | 0.44 | 5.6 | 9.7 | 0.4 | 1.4 | 22 | 1.7
CC1=CC[C@]23CC[C@H]4C(C)(C)CCC[C@]45C[C@]24C1=C[C@H]1C(C)(C)OC(=C(C(C)C)C3=O)[C@@]14O5 | 32.1 | 15.6 | 27.2 | 0.89 | 23.9 | 0.7 | 1.5 | 0.9 | 26.8
CC(C)C1=C2OC(C)(C)[C@@H]3CC4[C@@H](C)[C@H](B(F)F)C[C@@]5(CC[C@H]6C(C)(C)CCC[C@]67C[C@]45[C@@]23O7)C1=O (some centres undefined) | 24.4 | 12 | 4.8 | 0.8 | 35 | 1.4 | 2.9 | 7.3 | 43.8
CC1=CC[C@]23CC[C@H]4C(C)(C)CCC[C@]45C[C@]24[C@@]1(O)C[C@H]1C(C)(C)OC(=C(C(C)C)C3=O)[C@@]14O5 | 10.1 | 8.4 | 6 | 0.08 | 6.9 | 0.7 | 0.8 | 1.1 | 80
CC(C)C1=C2OC(C)(C)[C@@H]3CC4[C@H](C)[C@@H](O)C[C@@]5(CC[C@H]6C(C)(C)CCC[C@]67C[C@]45[C@@]23O7)C1=O (some centres undefined) | 25.8 | 33.3 | 41.2 | 2.6 | 136 | 5.3 | 4.1 | 3.3 | 53.1
